# Reference: patent US8940762B2, “Methods for treating pain” (AbbVie Inc., priority 2010, dated 2015)
# Columns and labels:
# [1] = system: osteoarthritic rats (MIA-induced osteoarthritis pain); assay: Monoiodoacetate-induced osteoarthritis (MIA-OA) pain model, hind limb grip force; format: in vivo, Sprague-Dawley rats; conditions: for percent return of grip force to normalcy: n=6
# Description: Pain behavior was assessed by measurement of hind limb grip force (GF) in adult osteoarthritic rats. Unilateral knee joint osteoarthritis was induced in rats by a single intraarticular (i.a.) injection of sodium monoiodoacetate (MIA) (Sigma, St. Louis, Mo.) (3 mg in 0.05 ml sterile isotonic saline) into the joint cavity using a 26 G needle under light (2-4%) isoflurane anesthesia, as previously described ([…]., Honore, P., 2009, Pharmacological modulation of movement-evoked pain in a rat model, Eur. J. […] Following injection, the animals were allowed to recover from the effects of anesthesia (usually 5-10 minutes) before returning them to their home cages. Grip strength was assessed in osteoarthritic rats as a measure of activity-induced pain. Measurements of peak hind limb grip force were conducted by recording the maximum compressive force (CFmax), in grams of force, exerted on the hind limb strain gauge, in a commercially available grip force measurement system (Columbus Instruments, Columbus, Ohio). During testing, each rat was gently restrained and allowed to grasp the wire mesh frame (10×12 cm) attached to the strain gauge. The animal was then moved in a rostral-to-caudal direction until the grip was broken. Each rat was sequentially tested twice at an approximately two-three minute interval to obtain a raw mean grip force (CFmax in gram force units). In order to account for the body weight differences among the rats, this raw mean grip force was converted to a maximum hind limb compressive force for each animal by dividing the CFmax by the body weight of the rat in kg [(CFmax in gram force)/kg body weight]. […] Compound A was administered in 10% DMSO/HBC vehicle orally at a volume of 2 ml/kg, 60 minutes before testing. The NSAID diclofenac (30 mg/kg, p.o.) was given 60 minutes before data collection and used as a positive control. A group of age-matched naïve (not injected with MIA) animals was added as a comparator to the drug-dosed groups. The vehicle control response for each group of MIA-treated animals was defined as the 0% response (0% effect), whereas the naïve control group was defined as the normal response and as 100% effect. The % effects for each dose group was expressed as % return of response to normalcy, compared to the naïve group. That is, the % effect=(Treatment CFmax-Vehicle CFmax)[…]]×100). Higher % effect numbers indicate increased relief from the pain in the model, with 100% indicating a return to the level of response seen in normal (non-osteoarthritic) animals. The data obtained from various dose groups for the test compound were compared with data from the naïve group.
# [2] = system: CCI rats (sciatic nerve-induced neuropathic pain); conditions: single dose p.o.; at less than about 100 micromoles/kg, for example less than about 30 micromoles/kg
# Source text: Food and water were available ad libitum at all times except during testing. […]
# The von Frey filaments were presented perpendicularly to the plantar surface of the selected hind paw, and then held in this position for approximately 8 seconds with enough force to cause a slight bend in the filament. Positive responses included an abrupt withdrawal of the hind paw from the stimulus, or flinching behavior immediately following removal of the stimulus.
SMILES,"% Effect (return of grip force to normalcy) ([1]; 30 mg/kg p.o., 60 minutes before data collection, positive control)","percent return of grip force to normalcy ([1]; 3 μmol/kg p.o., 60 minutes before data collection, MIA rats)","percent return of grip force to normalcy ([1]; 10 μmol/kg p.o., 60 minutes before data collection, MIA rats) [%]","percent return of grip force to normalcy ([1]; 30 μmol/kg p.o., 60 minutes before data collection, MIA rats) [%]","ED50 (return of grip force to normalcy) ([1]; p.o., 60 minutes before testing, MIA rats)",change in Paw Withdrawal Threshold versus vehicle [2]
"O=C(O)Cc1ccccc1Nc1c(Cl)cccc1Cl [diclofenac, reference compound]",about 69%,–,–,–,–,–
"c1cc2cc(-c3ccc(O[C@H]4C[C@H]5CC[C@@H](C4)N5)cn3)ccc2[nH]1 [Compound A, 5-(5-((1R,3r,5S)-8-azabicyclo[3.2.1]octan-3-yloxy)pyridine-2-yl)-1H-indole]",–,approximately 39%,~60,~73,approximately 6 μmol/kg,statistically significant change
